The subject of assay [1] is pancreatic cancer cell line MIAPaCa-2. The assay is described as follows: Cell proliferation inhibitory activity, MIAPaCa-2. It is filed as cell-based. Particulars: Homo sapiens, MIA PaCa-2, 96 h; cells counted 4 days later, Cell Counting Kit-8. As for the experimental part:
(§1) Evaluations were carried out using colon carcinoma cell line SW620 (Cat. No. CCL-227), lung carcinoma cell line NCI-H460 (Cat. No. HTB-177), prostate cancer cell line DU 145 (Cat. No. HTB-81), breast cancer cell line MDA-MB-231 (Cat. No. HTB26) and leukemia cell line KG-1a (Cat. No. CCL-246.1) purchased from ATCC, pancreatic cancer cell line MIAPaCa-2 (Cat. No. CRL-1420) purchased from Dainippon Pharmaceutical, and ovarian cancer cell line IGROV1 received from the Netherland Cancer Institute. The cells were cultured under the conditions recommended by the supplier for each cell line, or with respect to IGROV1, according to the method described in Cancer Res. 59: 4559-4563, 1999. Cells suspended in media were added to solutions containing the test substances at various concentrations followed by culturing in a 5% CO2 incubator at 37° C. The numbers of cells were counted 4 days later with the Cell Counting Kit-8. IC50 values were calculated by assigning measured values in the case of not containing a test substance to an inhibition of 0%, and assigning measured values in the case of not containing a test substance or cells to an inhibition of 100%.

Assay [2] has as its system prostate cancer cell line DU 145. The experiment in a line: Cell proliferation inhibitory activity, DU 145. The class given is cell-based, human. The settings on record: Homo sapiens, 96 h, cells counted 4 days later with Cell Counting Kit-8. The method, boiled down:
(§2)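 Cells grown under supplier-recommended conditions were exposed to serial concentrations of test compound at 37° C in 5% CO2. After 4 days, cell number was measured with Cell Counting Kit-8, and IC50 was derived with untreated wells as 0% and cell-free, compound-free wells as 100% inhibition.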

In assay [3] the target is T1, CDK3/Cyclin E complex (Homo sapiens, UniProt Q00526).
T1 construct: purchased Upstate Inc. 14-487
T1 sequence (Q00526 whole entry): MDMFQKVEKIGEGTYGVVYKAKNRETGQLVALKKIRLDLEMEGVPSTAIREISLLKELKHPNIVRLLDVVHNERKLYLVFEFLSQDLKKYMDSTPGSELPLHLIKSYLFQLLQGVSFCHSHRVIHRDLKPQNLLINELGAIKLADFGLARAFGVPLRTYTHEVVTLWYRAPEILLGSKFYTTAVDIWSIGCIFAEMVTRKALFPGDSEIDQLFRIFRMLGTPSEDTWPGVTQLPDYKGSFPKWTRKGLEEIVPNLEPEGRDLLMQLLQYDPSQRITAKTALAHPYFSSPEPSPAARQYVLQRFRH
T1 sequence (P24864 whole entry partner): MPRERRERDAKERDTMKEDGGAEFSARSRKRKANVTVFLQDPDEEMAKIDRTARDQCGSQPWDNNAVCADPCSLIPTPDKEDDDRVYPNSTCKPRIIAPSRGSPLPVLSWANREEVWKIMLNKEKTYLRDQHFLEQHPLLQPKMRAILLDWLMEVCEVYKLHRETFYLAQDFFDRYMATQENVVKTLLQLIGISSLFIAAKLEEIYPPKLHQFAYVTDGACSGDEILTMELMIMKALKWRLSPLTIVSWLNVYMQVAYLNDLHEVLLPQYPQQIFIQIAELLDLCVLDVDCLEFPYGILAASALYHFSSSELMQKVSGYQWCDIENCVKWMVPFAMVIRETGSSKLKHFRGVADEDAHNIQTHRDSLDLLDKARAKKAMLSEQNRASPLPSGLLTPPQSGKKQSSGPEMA
The experiment in a line: In vitro kinase assay, CDK3/Cyclin E complex. It is filed as biochemical. Particulars: recombinant protein (Upstate); read-out: CDK3/cyclinE IC50. As for the experimental part: (§3) Inhibitory activity against Aurora A, CDK1/Cyclin B complex, CDK2/Cyclin E complex and CDK3/Cyclin E complex were measured by in vitro kinase assay using recombinant proteins.

The test system of assay [4] is breast cancer cell line MDA-MB-231. The assay is described as follows: Cell proliferation inhibitory activity, MDA-MB-231. The class given is cell-based. Particulars: Homo sapiens, 96 h, cells counted 4 days later with Cell Counting Kit-8. As for the experimental part:
as §1

Assay [5] deals with ovarian cancer cell line IGROV1. The assay is described as follows: Cell proliferation inhibitory activity, IGROV1. It is filed as cell-based. Particulars: Homo sapiens, IGROV-1, 96 h, cells counted 4 days later with Cell Counting Kit-8. The method, then:
as §1

For assay [6], the system named is leukemia cell line KG-1a. The assay is described as follows: Cell proliferation inhibitory activity, KG-1a. It is filed as cell-based. The settings on record: Homo sapiens, 96 h, cells counted 4 days later with Cell Counting Kit-8. The essentials: as §2
Assay [7] deals with T2, CDK1/Cyclin B complex (Homo sapiens, UniProt P06493).
T2 construct: purchased Upstate Inc. 14-450
T2 sequence (P06493 whole entry): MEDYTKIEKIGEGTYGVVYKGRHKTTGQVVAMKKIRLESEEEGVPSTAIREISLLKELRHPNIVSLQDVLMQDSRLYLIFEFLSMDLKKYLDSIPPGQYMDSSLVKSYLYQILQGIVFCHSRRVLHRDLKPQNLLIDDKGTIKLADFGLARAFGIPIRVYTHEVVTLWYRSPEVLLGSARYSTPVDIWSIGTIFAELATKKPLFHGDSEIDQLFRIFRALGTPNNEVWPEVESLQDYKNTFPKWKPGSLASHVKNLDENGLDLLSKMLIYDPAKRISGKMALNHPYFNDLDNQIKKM
T2 sequence (P14635 whole entry partner): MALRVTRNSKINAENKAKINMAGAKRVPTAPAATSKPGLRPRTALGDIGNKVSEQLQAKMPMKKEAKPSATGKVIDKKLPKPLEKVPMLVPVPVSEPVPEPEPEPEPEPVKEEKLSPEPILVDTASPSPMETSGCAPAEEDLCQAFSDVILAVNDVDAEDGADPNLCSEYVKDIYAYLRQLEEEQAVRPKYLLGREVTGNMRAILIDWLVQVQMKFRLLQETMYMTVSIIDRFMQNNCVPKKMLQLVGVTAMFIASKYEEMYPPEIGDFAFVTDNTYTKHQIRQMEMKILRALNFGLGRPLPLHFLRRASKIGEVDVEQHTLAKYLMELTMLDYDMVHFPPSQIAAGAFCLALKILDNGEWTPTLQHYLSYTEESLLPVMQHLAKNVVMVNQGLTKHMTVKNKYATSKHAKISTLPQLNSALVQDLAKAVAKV
The experiment in a line: In vitro kinase assay, CDK1/Cyclin B complex. The class given is biochemical. Particulars: recombinant protein (Upstate). The method, boiled down:
(§4)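 Recombinant human enzymes assayed per supplier protocol. IC50 derived with compound-free wells set as 0% inhibition and compound- and enzyme-free wells as 100% inhibition.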

The target of assay [8] is CDK2/Cyclin E complex (Homo sapiens, UniProt P24941). The assay is described as follows: In vitro kinase assay, CDK2/Cyclin E complex. It is filed as biochemical. The settings on record: recombinant protein (Upstate); read-out: CDK2/cyclinE IC50. As for the experimental part: as §3
Assay [9] addresses T3, Aurora A (Homo sapiens, UniProt O14965).
T3 construct: purchased Upstate Inc. 14-511
T3 sequence (O14965 1-403): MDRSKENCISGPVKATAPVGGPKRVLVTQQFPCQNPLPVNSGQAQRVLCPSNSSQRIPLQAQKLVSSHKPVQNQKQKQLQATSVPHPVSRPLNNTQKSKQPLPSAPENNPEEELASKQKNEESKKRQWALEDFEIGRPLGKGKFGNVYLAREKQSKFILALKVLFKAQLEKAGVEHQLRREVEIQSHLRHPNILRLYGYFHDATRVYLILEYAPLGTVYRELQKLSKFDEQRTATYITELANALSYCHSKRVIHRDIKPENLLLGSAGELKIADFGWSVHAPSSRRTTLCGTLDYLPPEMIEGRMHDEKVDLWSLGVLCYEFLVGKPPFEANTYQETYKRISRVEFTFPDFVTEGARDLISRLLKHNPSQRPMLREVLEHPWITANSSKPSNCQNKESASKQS
The experiment in a line: In vitro kinase assay, Aurora A. It is filed as biochemical. Particulars: recombinant protein (Upstate). The method, boiled down: as §4

Assay [10] deals with colon carcinoma cell line SW620. The experiment in a line: Cell proliferation inhibitory activity, SW620. The class given is cell-based, human. The settings on record: Homo sapiens, SW-620, 96 h, cells counted 4 days later with Cell Counting Kit-8. The essentials: as §2
Assay [11] relates to lung carcinoma cell line NCI-H460. The experiment in a line: Cell proliferation inhibitory activity, NCI-H460. The class given is cell-based. The settings on record: Homo sapiens, 96 h, cells counted 4 days later with Cell Counting Kit-8. The method, boiled down:
as §2

Assay [12] has as its target T4, recombinant human βARK1 (Homo sapiens, UniProt P25098).
T4 construct: made in house; host or cells: Sf-9 insect cells (baculovirus, pBacPAK8)
T4 sequence (P25098 1-689): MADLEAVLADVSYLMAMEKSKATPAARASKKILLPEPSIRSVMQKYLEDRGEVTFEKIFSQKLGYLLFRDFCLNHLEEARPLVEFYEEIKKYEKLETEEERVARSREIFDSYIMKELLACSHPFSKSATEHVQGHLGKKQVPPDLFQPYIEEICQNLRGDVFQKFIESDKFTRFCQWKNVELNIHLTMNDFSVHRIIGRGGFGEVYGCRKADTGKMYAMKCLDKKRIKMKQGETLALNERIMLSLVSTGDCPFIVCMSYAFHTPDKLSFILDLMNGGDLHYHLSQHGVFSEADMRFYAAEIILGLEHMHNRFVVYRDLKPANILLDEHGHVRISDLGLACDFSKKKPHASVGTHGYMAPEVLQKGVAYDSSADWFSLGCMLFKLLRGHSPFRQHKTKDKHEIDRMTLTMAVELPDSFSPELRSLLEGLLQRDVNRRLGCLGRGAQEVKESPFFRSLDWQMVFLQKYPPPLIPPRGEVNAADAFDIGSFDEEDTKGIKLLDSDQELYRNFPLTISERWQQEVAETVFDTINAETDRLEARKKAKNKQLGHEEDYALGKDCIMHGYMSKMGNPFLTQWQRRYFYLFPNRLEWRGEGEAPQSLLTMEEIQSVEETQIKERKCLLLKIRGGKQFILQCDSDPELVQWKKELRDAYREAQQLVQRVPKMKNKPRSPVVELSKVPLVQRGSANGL
The experiment in a line: Inhibitory activity against βARK1 (33P phosphorylation of synthetic peptide). The settings on record: recombinant human βARK1, 60 minutes at room temperature. It is filed as biochemical. As for the experimental part: Human βARK1 was amplified by PCR based on the base sequence of human βARK1 mRNA registered in GenBank (Accession No. M80776) using a human leukocyte cDNA library (Gibco BRL Cat. No. 10421-022) as a template. The amplified cDNA fragment was inserted into a pBacPAK8 vector (Clontech) to construct a plasmid.
Recombinant human βARK1 was expressed using the BacPAK Baculovirus Expression System (Clontech, Cat. No. K1601-1). 1×10^6 Sf-9 cells were adhered to a 35 mm dish in 2.5 mL of TMN-FH Insect Medium containing 10 vol % FBS (Pharminogen, Cat. No. PM-21227M) and cultured overnight at 27° C. On the following day, the medium was removed and 500 ng of the above plasmid, BacPAK6 viral DNA cleaved with Bsu36I (5 μL) and 1.5 mL of the same medium mixed with 4 μL of Bacfectin were added followed by culturing for 5 hours, further adding 1.5 mL of medium and subsequently culturing for 5 days. […] The culture supernatant after 5 days was recovered and a plaque assay was carried out to isolate single plaques. These were then infected into Sf-9 cells and the resulting culture supernatant was designated as Passage 1 (1−3×10^11 pfu/mL). Passage 1 was added to 3×10^7 Sf-9 cells to a multiplicity of infection (MOI) of 0.1 (pfu/cell), suspension culturing was carried out for 5 days using a spinner flask, and the resulting culture supernatant was designated as Passage 2 (4×10^10 pfu/mL) and used as a viral liquid for large-volume expression.
Sf-9 cells at 3×10^9 cells/200 mL were infected by adding Passage 2 to an MOI of 100 followed by addition of medium to bring to a liquid volume of 2 L and further culturing for 3 days. After recovering the cells by centrifugation and washing three times with PBS, the cells were suspended in 100 mL of Lysis Buffer (20 mmol/L HEPES-HCl (pH 7.2), 5 mmol/L EDTA, 3 mmol/L phenylmethylsulfonyl fluoride (PMSF)). After lysing the cells by ultrasonic treatment at low temperature, the supernatant was recovered by centrifuging (45,000×g, 15 minutes) (sup1). NaCl was added to the resulting supernatant to a final concentration of 250 mmol/L followed by ultracentrifugation (300,000×g, 60 minutes) and using the subsequent supernatant as a crude cell extract (sup2).
Purification was carried out with reference to the literature (Benovic, J. L., Methods Enzymol. 1991; 200: 351-362; Kim, C. M. et al., Receptor 1993; 3: 39-55; Sohlemann, P. et al., FEBS Letters 1993; 324: 59-62). The crude cell extract was accurately brought to a volume of 400 mL with Buffer C (20 mmol/L HEPES-HCl (pH 7.2), 5 mmol/L EDTA, 0.02 vol % Triton X-100) followed by loading onto a 50 mL SP-Sepharose FF (Amersham Pharmacia Biotech) column equilibrated with Buffer C. […] ETA was carried out on each fraction using anti-GRK2 antibody (Santa-Cruz Cat. No. SC-562) and the positive fractions were collected (GRK2=βARK1). This was then diluted three-fold with Buffer C and loaded on a 5 mL HiTrap Heparin column (Amersham Pharmacia Biotech) column equilibrated with Buffer C. After washing the column with Wash Buffer (100 mmol/L NaCl, Buffer C), the column was eluted with an NaCl concentration gradient (100 to 600 mmol/L NaCl for 100 minutes, flow rate: 1 mL/min). The positive fractions as determined by ETA were collected and stored in a freezer at −80° C.
A synthetic peptide having an amino acid sequence of biotinated-[…] was used in accordance with a previous report (Chen, C. Y. et al., J. Biol. Chem. 1993; 268: 7825-7831). This synthetic peptide can also be synthesized with reference to known synthesis methods (for example, Chen, C. Y. et al., J. Biol. Chem. 1993; 268: 7825-7831, Biochemistry 1991; 30: 5118-5125). 2 μl of a DMSO solution in which the test compound was diluted to as to be […] the final concentration was dispensed into a 96-well plate (round bottom) (Falcon 351190) (final concentration: 4 vol % DMSO). […]

`CC(Nc1cccc(O)c1)C(=O)Nc1nc2ccc3[nH]ncc3c2s1` (stereo not drawn) [compound 23]: the IC50 in assay [1] is 3.5 µM; in assay [2], 1.6 µM; in assay [3], 0.047 µM; in [4], 1.6 µM; in assay [5], 1.3 µM; in assay [6], < 0.1 µM. Besides, the IC50 amounted to 0.15 µM in assay [7]; 0.03 µM in [8]; 0.047 µM in assay [9]; 0.5 µM in assay [10]; 1.4 µM in [11].

`CC(C)(Nc1ccc(Cl)c(C(=O)NOCc2ccccc2)c1)C(=O)Nc1nc2c(C(F)(F)F)cc3[nH]ncc3c2s1` [compound 98]: the IC50 is 4 µM in [1]; 4.4 µM in [2]; 0.128 µM in assay [3]; 2.6 µM in assay [4]; 0.065 µM in assay [9]; 0.5 µM in assay [10]. In addition, the IC50 in [11] turned out to be 1.8 µM.

Consider `CC(C)(Nc1ccc(Cl)c(OCC(O)CO)c1)C(=O)Nc1nc2c(C(F)(F)F)cc3[nH]ncc3c2s1` (stereo not drawn) [compound 99], for which the IC50 in assay [1] came out at 4.5 µM; in assay [2] it was 1.7 µM; in assay [3], 0.0087 µM; in [4], 3 µM; in assay [5], 4.4 µM; in [6] it was 0.3 µM. The IC50 in [7] was found to be 0.14 µM; in assay [8] it was 0.02 µM; in assay [9], 0.142 µM; in assay [10], 0.7 µM; in assay [11] it was 4.1 µM.

For the molecule `Cc1cc2[nH]ncc2c2sc(NC(=O)C3(Nc4ccc(Cl)cc4)CC3)nc12` [compound 127], the IC50 in [2] was 3 µM; in [3], 0.185 µM; in [4], 4.3 µM; in assay [5], 4.9 µM; in [6] it was < 0.1 µM; in assay [8] it was 0.128 µM. In addition, the IC50 is 0.0062 µM in [12], 0.7 µM in assay [10] and 3.1 µM in assay [11].

As for `CNC(=O)c1cc(NC(C)(C)C(=O)Nc2nc3c(C(F)(F)F)cc4[nH]ncc4c3s2)ccc1F` [compound 137], the IC50 in assay [1] is 3.1 µM; in assay [2], 0.4 µM; in assay [3] it was 0.012 µM; in [4], 1.9 µM; in assay [5], 3 µM; in assay [6], < 0.1 µM. Besides, the IC50 was 0.039 µM in assay [7], 0.04 µM in assay [8], 0.2 µM in assay [10] and 0.4 µM in assay [11].

Regarding `CC(C)(Nc1ccc(F)c(C(N)=O)c1)C(=O)Nc1nc2c(C(F)(F)F)cc3[nH]ncc3c2s1` [compound 138], the IC50 in assay [1] amounted to 4.3 µM; in [2], 2.3 µM; in assay [3] it was 0.012 µM; in assay [5] it was 4.5 µM; in assay [7], 0.053 µM; in [8], 0.037 µM. The IC50 stood at 0.263 µM in assay [9], 2.1 µM in assay [10] and 1.6 µM in [11].

The record behind these values is patent US7879887B2, “α-amino acid derivatives and medicaments containing the same as an active ingredient” (Nissan Chemical Industries, Ltd., priority 2006, dated 2011).
